In brackets after ≈: the same amount, converted by molar mass.
Columns and labels:
Helicoverpa armigera [1] = assay: Insecticidal activity against second-instar larval stage of Helicoverpa armigera fed with artificial diet containing compound assessed as mortality after 7 days; type: functional; settings: 168 h
Helicoverpa armigera [2] = assay: Antifeedant activity against third-instar larval stage of Helicoverpa armigera fed with artificial diet containing compound assessed as efficiency index of ingested food at 9.82 mg/ml after 3 days (reference value: 52%); type: functional
Spodoptera litura [3] = assay: Antifeedant activity against third-instar larval stage of Spodoptera litura fed with artificial diet containing compound assessed as relative growth rate at 8.32 mg/ml after 3 days (reference value: 1.37 +/- 0.12 mg/mg/day); type: functional
Spodoptera litura [4] = assay: Antifeedant activity against third-instar larval stage of Spodoptera litura fed with artificial diet containing compound assessed as relative consumption rate at 8.32 mg/ml after 3 days (reference value: 2.13 +/- 0.18 mg/mg/day); type: functional
Helicoverpa armigera [5] = assay: Antifeedant activity against third-instar larval stage of Helicoverpa armigera fed with artificial diet containing compound assessed as relative growth rate at 9.82 mg/ml after 3 days (reference value: 0.97 +/- 0.13 mg/mg/day); type: functional
Spodoptera litura [6] = assay: Antifeedant activity against third-instar larval stage of Spodoptera litura fed with artificial diet containing compound assessed as efficiency index of ingested food at 8.32 mg/ml after 3 days (reference value: 64.5%); type: functional
Helicoverpa armigera [7] = assay: Antifeedant activity against third-instar larval stage of Helicoverpa armigera fed with artificial diet containing compound assessed as relative consumption rate at 9.82 mg/ml after 3 days (reference value: 1.88 +/- 0.14 mg/mg/day); type: functional
Spodoptera litura [8] = assay: Insecticidal activity against second-instar larval stage of Spodoptera litura fed with artificial diet containing compound assessed as growth inhibition after 7 days; type: functional, organism-based; settings: for EC50: 168 h
Helicoverpa armigera [9] = assay: Insecticidal activity against second-instar larval stage of Helicoverpa armigera fed with artificial diet containing compound assessed as growth inhibition after 7 days; type: functional, organism-based; settings: for EC50: 168 h
Spodoptera litura [10] = assay: Insecticidal activity against second-instar larval stage of Spodoptera litura fed with artificial diet containing compound assessed as mortality after 7 days; type: functional; settings: 168 h
Spodoptera litura [11] = assay: Antifeedant activity against third-instar larval stage of Spodoptera litura fed with artificial diet containing compound assessed as relative consumption rate at 6.25 mg/ml after 3 days (reference value: 2.13 +/- 0.18 mg/mg/day); type: functional
Helicoverpa armigera [12] = assay: Antifeedant activity against third-instar larval stage of Helicoverpa armigera fed with artificial diet containing compound assessed as relative growth rate at 7.15 mg/ml after 3 days (reference value: 0.97 +/- 0.13 mg/mg/day); type: functional
Spodoptera litura [13] = assay: Antifeedant activity against third-instar larval stage of Spodoptera litura fed with artificial diet containing compound assessed as efficiency index of ingested food at 6.25 mg/ml after 3 days (reference value: 64.5%); type: functional
Helicoverpa armigera [14] = assay: Antifeedant activity against third-instar larval stage of Helicoverpa armigera fed with artificial diet containing compound assessed as relative consumption rate at 7.15 mg/ml after 3 days (reference value: 1.88 +/- 0.14 mg/mg/day); type: functional
Helicoverpa armigera [15] = assay: Antifeedant activity against third-instar larval stage of Helicoverpa armigera fed with artificial diet containing compound assessed as efficiency index of ingested food at 7.15 mg/ml after 3 days (reference value: 52%); type: functional
Spodoptera litura [16] = assay: Antifeedant activity against third-instar larval stage of Spodoptera litura fed with artificial diet containing compound assessed as relative growth rate at 6.25 mg/ml after 3 days (reference value: 1.37 +/- 0.12 mg/mg/day); type: functional
Spodoptera litura [17] = assay: Antifeedant activity against third-instar larval stage of Spodoptera litura fed with artificial diet containing compound assessed as relative growth rate at 5.9 mg/ml after 3 days (reference value: 1.37 +/- 0.12 mg/mg/day); type: functional
Spodoptera litura [18] = assay: Antifeedant activity against third-instar larval stage of Spodoptera litura fed with artificial diet containing compound assessed as efficiency index of ingested food at 5.9 mg/ml after 3 days (reference value: 64.5%); type: functional
Helicoverpa armigera [19] = assay: Antifeedant activity against third-instar larval stage of Helicoverpa armigera fed with artificial diet containing compound assessed as relative growth rate at 8.21 mg/ml after 3 days (reference value: 0.97 +/- 0.13 mg/mg/day); type: functional
Helicoverpa armigera [20] = assay: Antifeedant activity against third-instar larval stage of Helicoverpa armigera fed with artificial diet containing compound assessed as relative consumption rate at 8.21 mg/ml after 3 days (reference value: 1.88 +/- 0.14 mg/mg/day); type: functional
Helicoverpa armigera [21] = assay: Antifeedant activity against third-instar larval stage of Helicoverpa armigera fed with artificial diet containing compound assessed as efficiency index of ingested food at 8.21 mg/ml after 3 days (reference value: 52%); type: functional
Spodoptera litura [22] = assay: Antifeedant activity against third-instar larval stage of Spodoptera litura fed with artificial diet containing compound assessed as relative consumption rate at 5.9 mg/ml after 3 days (reference value: 2.13 +/- 0.18 mg/mg/day); type: functional
Helicoverpa armigera [23] = assay: Antifeedant activity against third-instar larval stage of Helicoverpa armigera fed with artificial diet containing compound assessed as efficiency index of ingested food at 7.38 mg/ml after 3 days (reference value: 52%); type: functional
Spodoptera litura [24] = assay: Antifeedant activity against third-instar larval stage of Spodoptera litura fed with artificial diet containing compound assessed as relative growth rate at 5.6 mg/ml after 3 days (reference value: 1.37 +/- 0.12 mg/mg/day); type: functional
Spodoptera litura [25] = assay: Antifeedant activity against third-instar larval stage of Spodoptera litura fed with artificial diet containing compound assessed as efficiency index of ingested food at 5.6 mg/ml after 3 days (reference value: 64.5%); type: functional
Helicoverpa armigera [26] = assay: Antifeedant activity against third-instar larval stage of Helicoverpa armigera fed with artificial diet containing compound assessed as relative growth rate at 7.38 mg/ml after 3 days (reference value: 0.97 +/- 0.13 mg/mg/day); type: functional
Spodoptera litura [27] = assay: Antifeedant activity against third-instar larval stage of Spodoptera litura fed with artificial diet containing compound assessed as relative consumption rate at 5.6 mg/ml after 3 days (reference value: 2.13 +/- 0.18 mg/mg/day); type: functional
Helicoverpa armigera [28] = assay: Antifeedant activity against third-instar larval stage of Helicoverpa armigera fed with artificial diet containing compound assessed as relative consumption rate at 7.38 mg/ml after 3 days (reference value: 1.88 +/- 0.14 mg/mg/day); type: functional

Row | SMILES | LC50 (Helicoverpa armigera [1]) [µg/mL] | growth inhibition (GI) (Spodoptera litura [8]) | EC50 (Spodoptera litura [8]) [µg/mL] | growth inhibition (GI) (Helicoverpa armigera [9]) | EC50 (Helicoverpa armigera [9]) [µg/mL] | LC50 (Spodoptera litura [10]) [µg/mL] | further results
1 | CCCCC(=O)OCCCCCOC(=O)CCCC [PENTANE-1,5-DIPENTANOATE] | 2000 (≈ 7.34 mM) | Dose-dependent effect | 5010 (≈ 18.4 mM) | Dose-dependent effect | 5880 (≈ 21.6 mM) | 2000 (≈ 7.34 mM) | ECI (Helicoverpa armigera [2]): 37.2%; Activity (Spodoptera litura [3]): 0.94 mg/mg/day; Activity (Spodoptera litura [4]): 2.02 mg/mg/day; Activity (Helicoverpa armigera [5]): 0.66 mg/mg/day; ECI (Spodoptera litura [6]): 44%; Activity (Helicoverpa armigera [7]): 1.79 mg/mg/day
2 | CCCCCCCC(=O)OCC(C)OC(=O)CCCCCCC (stereo not drawn) | 2000 (≈ 6.09 mM) | Dose-dependent effect | 3820 (≈ 11.6 mM) | Dose-dependent effect | 4380 (≈ 13.3 mM) | 2000 (≈ 6.09 mM) | Activity (Spodoptera litura [11]): 2.21 mg/mg/day; Activity (Helicoverpa armigera [12]): 0.7 mg/mg/day; ECI (Spodoptera litura [13]): 18%; Activity (Helicoverpa armigera [14]): 1.86 mg/mg/day; ECI (Helicoverpa armigera [15]): 37.9%; Activity (Spodoptera litura [16]): 0.88 mg/mg/day
3 | CCCC(=O)OCC(C)OC(=O)CCC (stereo not drawn) | 2000 (≈ 9.25 mM) | Dose-dependent effect | 4210 (≈ 19.5 mM) | Dose-dependent effect | 5670 (≈ 26.2 mM) | 2000 (≈ 9.25 mM) | Activity (Spodoptera litura [17]): 1.04 mg/mg/day; ECI (Spodoptera litura [18]): 12%; Activity (Helicoverpa armigera [19]): 0.67 mg/mg/day; Activity (Helicoverpa armigera [20]): 1.77 mg/mg/day; ECI (Helicoverpa armigera [21]): 38.2%; Activity (Spodoptera litura [22]): 1.98 mg/mg/day
4 | CC(COC(=O)C(C)C)OC(=O)C(C)C (stereo not drawn) | 2000 (≈ 9.25 mM) | Dose-dependent effect | 5210 (≈ 24.1 mM) | Dose-dependent effect | 7340 (≈ 33.9 mM) | 2000 (≈ 9.25 mM) | ECI (Helicoverpa armigera [23]): 30.4%; Activity (Spodoptera litura [24]): 1.09 mg/mg/day; ECI (Spodoptera litura [25]): 13%; Activity (Helicoverpa armigera [26]): 0.58 mg/mg/day; Activity (Spodoptera litura [27]): 2.12 mg/mg/day; Activity (Helicoverpa armigera [28]): 1.91 mg/mg/day

From ChEMBL document CHEMBL3045652, “Biorational glycol diesters as dietary toxins versus bioefficacy of sucrose octanoate against lepidopteran larvae” (Ind Crops Prod, 2012)
